Legend:
Rattus norvegicus [1] = experiment: Antipsychotic activity was assessed by ability to block response of rats trained to avoid an electrical shock (inhibition of self-jump and/or discrete trial conditioned avoidance response(CAR) upon ip administration; type: functional
[2] = target: D(2) dopamine receptor (Rattus norvegicus) (UniProt P61169); experiment: In vitro binding affinity for Dopamine receptor D2 of rat nucleus accumbens labeled with [3H]spiperone was determined at 1 uM concentration
[3] = target: D(2) dopamine receptor (Rattus norvegicus) (UniProt P61169); experiment: In vitro binding affinity for Dopamine receptor D2 of rat striatum labeled with [3H]spiperone was determined at 10 uM concentration; type: tissue-based
Rattus norvegicus [4] = experiment: Antipsychotic activity was assessed by ability to block response of rats trained to avoid an electrical shock (inhibition of self-jump and/or discrete trial conditioned avoidance response(CAR) upon ip administration; value ranges from 30-62; type: functional
Rattus norvegicus [5] = experiment: Antipsychotic activity was assessed by ability to block response of rats trained to avoid an electrical shock (inhibition of self-jump and/or discrete trial conditioned avoidance response(CAR) upon ip administration; value ranges from 14-49; type: functional
D(2) dopamine receptor [6] = target: T1, D(2) dopamine receptor (Rattus norvegicus, UniProt P61169); experiment: In vitro binding affinity for Dopamine receptor D2 of rat nucleus accumbens labeled with [3H]spiperone was determined at 10 uM concentration.
[7] = target: D(2) dopamine receptor (Rattus norvegicus) (UniProt P61169); experiment: In vitro binding affinity for Dopamine receptor D2 of rat nucleus accumbens labeled with [3H]spiperone was determined at 10 uM concentration
Rattus norvegicus [8] = experiment: Antipsychotic activity was assessed by ability to block response of rats trained to avoid an electrical shock (inhibition of self-jump and/or discrete trial conditioned avoidance response(CAR) upon ip administration; value ranges from 15-33; type: functional
[9] = target: D(2) dopamine receptor (Rattus norvegicus) (UniProt P61169); experiment: In vitro binding affinity for Dopamine receptor D2 of rat striatum labeled with [3H]-spiperone was determined at 10 uM concentration; type: tissue-based
[10] = target: D(2) dopamine receptor (Rattus norvegicus) (UniProt P61169); experiment: In vitro binding affinity for Dopamine receptor D2 of rat nucleus accumbens labeled with [3H]-spiperone was determined at 1 uM concentration
Rattus norvegicus [11] = experiment: Antipsychotic activity was assessed by ability to block response of rats trained to avoid an electrical shock (inhibition of self-jump and/or discrete trial conditioned avoidance response(CAR) upon ip administration; value ranges from 6.5-7.5; type: functional
Rattus norvegicus [12] = experiment: Antipsychotic activity was assessed by ability to block response of rats trained to avoid an electrical shock (inhibition of self-jump and/or discrete trial conditioned avoidance response(CAR) upon po administration; value ranges from 8-17; type: functional
Rattus norvegicus [13] = experiment: Antipsychotic activity was assessed by ability to block response of rats trained to avoid an electrical shock (inhibition of self-jump and/or discrete trial conditioned avoidance response (CAR) upon ip administration.* >40 indicates insignificant aactivity; type: functional
Rattus norvegicus [14] = experiment: Antipsychotic activity was assessed by ability to block response of rats trained to avoid an electrical shock (inhibition of self-jump and/or discrete trial conditioned avoidance response(CAR) upon ip administration; value ranges from 33-37; type: functional
Rattus norvegicus [15] = experiment: Antipsychotic activity was assessed by ability to block response of rats trained to avoid an electrical shock (inhibition of self-jump and/or discrete trial conditioned avoidance response(CAR) upon ip administration; value ranges from 2-7; type: functional
Rattus norvegicus [16] = experiment: Antipsychotic activity was assessed by ability to block response of rats trained to avoid an electrical shock (inhibition of self-jump and/or discrete trial conditioned avoidance response(CAR) upon po administration; value ranges from 2-3; type: functional
Rattus norvegicus [17] = experiment: Antipsychotic activity was assessed by ability to block response of rats trained to avoid an electrical shock (inhibition of self-jump and/or discrete trial conditioned avoidance response(CAR) upon po administration; value ranges from 0.1-3.5; type: functional
Rattus norvegicus [18] = experiment: Antipsychotic activity was assessed by ability to block response of rats trained to avoid an electrical shock (inhibition of self-jump and/or discrete trial conditioned avoidance response(CAR) upon ip administration; value ranges from 0.12-0.33; type: functional
Rattus norvegicus [19] = experiment: Antipsychotic activity was assessed by ability to block response of rats trained to avoid an electrical shock (inhibition of self-jump and/or discrete trial conditioned avoidance response(CAR) upon ip administration.; type: functional
Rattus norvegicus [20] = experiment: Antipsychotic activity was assessed by ability to block response of rats trained to avoid an electrical shock (inhibition of self-jump and/or discrete trial conditioned avoidance response(CAR) upon ip administration; value ranges from 15-22; type: functional
Rattus norvegicus [21] = experiment: Antipsychotic activity was assessed by ability to block response of rats trained to avoid an electrical shock (inhibition of self-jump and/or discrete trial conditioned avoidance response(CAR) upon po administration; value ranges from 30-33; type: functional
Rattus norvegicus [22] = experiment: Antipsychotic activity was assessed by ability to block response of rats trained to avoid an electrical shock (inhibition of self-jump and/or discrete trial conditioned avoidance response(CAR) upon ip administration; value ranges from 9-24; type: functional
D(2) dopamine receptor [23] = target: T1, D(2) dopamine receptor; experiment: In vitro binding affinity for Dopamine receptor D2 of rat striatum labeled with [3H]-spiperone was determined
Rattus norvegicus [24] = experiment: Antipsychotic activity was assessed by ability to block response of rats trained to avoid an electrical shock (inhibition of self-jump and/or discrete trial conditioned avoidance response(CAR) upon ip administration; value ranges from 19-78; type: functional
Rattus norvegicus [25] = experiment: Antipsychotic activity was assessed by ability to block response of rats trained to avoid an electrical shock (inhibition of self-jump and/or discrete trial conditioned avoidance response(CAR) upon ip administration; value ranges from 7-18; type: functional

T1 sequence (P61169 whole entry): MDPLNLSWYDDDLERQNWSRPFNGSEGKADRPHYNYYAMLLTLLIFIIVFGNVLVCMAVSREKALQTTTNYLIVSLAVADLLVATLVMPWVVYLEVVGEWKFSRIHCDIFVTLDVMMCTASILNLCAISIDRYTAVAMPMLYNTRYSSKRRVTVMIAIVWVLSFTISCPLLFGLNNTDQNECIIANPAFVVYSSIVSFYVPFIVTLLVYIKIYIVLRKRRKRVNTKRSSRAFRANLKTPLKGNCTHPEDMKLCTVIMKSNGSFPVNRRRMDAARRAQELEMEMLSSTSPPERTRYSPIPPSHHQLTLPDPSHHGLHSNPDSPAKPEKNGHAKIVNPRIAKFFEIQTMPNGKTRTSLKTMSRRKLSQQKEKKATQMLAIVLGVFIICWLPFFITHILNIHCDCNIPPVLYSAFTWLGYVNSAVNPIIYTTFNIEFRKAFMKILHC
Sequence of D(2) dopamine receptor (Rattus norvegicus) (P61169 whole entry): as above

Clc1ccc2[nH]c3c(c2c1)CCN(CCc1ccc2ccccc2n1)C3
AB50 (Rattus norvegicus [1]): >40 mg/kg

c1coc(CN2CCc3c([nH]c4ccccc34)C2)c1
inhibition [2]: 7%

Fc1ccc2[nH]c3c(c2c1)CCN(CCc1ccc2ccccc2n1)C3
AB50 (Rattus norvegicus [1]): 40 mg/kg

c1ccc2c(N3CCc4c([nH]c5ccccc45)C3)ccnc2c1
inhibition [2]: 7%
AB50 (Rattus norvegicus [1]): >40 mg/kg

c1ccc2c3c([nH]c2c1)CN(CCc1cnccn1)CC3
inhibition [2]: 13%

c1ccc2c3c([nH]c2c1)CN(Cc1ccncc1)CC3
inhibition [3]: 27%
inhibition [2]: 13%

COc1ccc2[nH]c3c(c2c1)CCN(CCc1ccccn1)C3
inhibition [2]: 8%

C[C@@H]1CN(CCCn2c3ccccc3c3ccccc32)C[C@H](C)N1 [RIMCAZOLE]
AB50 (Rattus norvegicus [4]): 39 mg/kg

Fc1ccc2[nH]c3c(c2c1)CCN(CCCCc1ccnc2ccccc12)C3
AB50 (Rattus norvegicus [1]): >40 mg/kg

Fc1ccc(C(CCCN2CCc3c([nH]c4ccccc34)C2)c2ccc(F)cc2)cc1
AB50 (Rattus norvegicus [1]): >40 mg/kg

Cn1c(CN2CCc3c([nH]c4ccccc34)C2)nc2ccccc21
inhibition [2]: 6%

FC(F)(F)c1cccc(N2CCN(CCCN3CCc4c([nH]c5ccccc45)C3)CC2)c1
AB50 (Rattus norvegicus [1]): >40 mg/kg

c1ccc(CCN2CCc3c([nH]c4ccccc34)C2)nc1
AB50 (Rattus norvegicus [5]): 23 mg/kg
inhibition [2]: 38%

Fc1ccc2[nH]c3c(c2c1)CCN(CCc1ccccn1)C3
inhibition [2]: 75%
AB50 (Rattus norvegicus [1]): 40 mg/kg

Fc1ccc2[nH]c3c(c2c1)CCN(CCCCc1ccncc1)C3
Ki (D(2) dopamine receptor [6]): 720 nM
AB50 (Rattus norvegicus [1]): >40 mg/kg

CN(C)CCCn1c2c(c3ccccc31)CCN(CCCc1cccnc1)C2
inhibition [7]: 17%
AB50 (Rattus norvegicus [1]): >40 mg/kg

c1cncc(CCCN2CCc3c(n(CCCN4CCCCC4)c4ccccc34)C2)c1
inhibition [7]: 26%
AB50 (Rattus norvegicus [1]): >40 mg/kg

c1cncc(CCCN2CCc3c([nH]c4ccccc34)C2)c1
AB50 (Rattus norvegicus [8]): 21 mg/kg

c1ccc2nc(CN3CCc4c([nH]c5ccccc45)C3)ccc2c1
inhibition [9]: 7%
inhibition [2]: 7%
AB50 (Rattus norvegicus [1]): 48 mg/kg

Clc1cccc(N2CCN(CCCn3c4c(c5ccccc53)CCN(CCCc3cccnc3)C4)CC2)c1
AB50 (Rattus norvegicus [1]): >40 mg/kg

COc1ccc2[nH]c3c(c2c1)CCN(CCc1ccncc1)C3
inhibition [10]: 53%

CN1CCN(C2=Nc3cc(Cl)ccc3Nc3ccccc32)CC1 [CLOZAPINE]
AB50 (Rattus norvegicus [11]): 7 mg/kg
AB50 (Rattus norvegicus [12]): 11 mg/kg

OC1(c2ccc(Cl)cc2)CCN(CCCn2c3c(c4ccccc42)CCN(CCc2ccccn2)C3)CC1
AB50 (Rattus norvegicus [1]): >40 mg/kg

CN(C)CCCn1c2c(c3ccccc31)CCN(CCCc1ccncc1)C2
inhibition [2]: 0%
AB50 (Rattus norvegicus [1]): >40 mg/kg

Clc1ccc2[nH]c3c(c2c1)CCN(CCc1ccncc1)C3
AB50 (Rattus norvegicus [13]): >40 mg/kg

Clc1cccc(N2CCN(CCCN3CCc4c([nH]c5ccccc45)C3)CC2)c1
AB50 (Rattus norvegicus [1]): >40 mg/kg

c1cnc(N2CCN(CCCN3CCc4c([nH]c5ccccc45)C3)CC2)nc1
AB50 (Rattus norvegicus [14]): 35 mg/kg

c1ccc(Cn2c3c(c4ccccc42)CCN(CCc2ccccn2)C3)cc1
AB50 (Rattus norvegicus [1]): >40 mg/kg

CN(C)CCCN1c2ccccc2Sc2ccc(Cl)cc21 [CHLORPROMAZINE]
AB50 (Rattus norvegicus [15]): 4 mg/kg
AB50 (Rattus norvegicus [16]): 3 mg/kg

Clc1cccc(N2CCN(CCCn3c4c(c5ccccc53)CCN(CCc3ccccn3)C4)CC2)c1
AB50 (Rattus norvegicus [1]): >40 mg/kg

O=C(CCCn1c2c(c3ccccc31)CCN(CCc1ccccn1)C2)c1ccc(F)cc1
AB50 (Rattus norvegicus [1]): >40 mg/kg

c1ccc2c(CN3CCc4c([nH]c5ccccc45)C3)ccnc2c1
inhibition [2]: 26%
AB50 (Rattus norvegicus [1]): >40 mg/kg

O=C(CCCN1CCC(O)(c2ccc(Cl)cc2)CC1)c1ccc(F)cc1 [HALOPERIDOL]
AB50 (Rattus norvegicus [17]): 0.2 mg/kg
AB50 (Rattus norvegicus [18]): 0.2 mg/kg

c1ccc2c3c([nH]c2c1)CN(CCCc1ccncc1)CC3
AB50 (Rattus norvegicus [19]): 40 mg/kg

CC1CN(CCCN2CCc3c([nH]c4ccccc34)C2)CC(C)N1 (configuration not stated)
inhibition [2]: 38%
AB50 (Rattus norvegicus [1]): >40 mg/kg

Clc1ccc2[nH]c3c(c2c1)CCN(CCCCc1ccncc1)C3
inhibition [2]: 51%
AB50 (Rattus norvegicus [1]): >40 mg/kg

COc1cccc(OC)c1CN1CCc2c([nH]c3ccccc23)C1
inhibition [7]: 27%
inhibition [2]: 15%

O=C(c1nccc2ccccc12)N1CCc2c([nH]c3ccccc23)C1
inhibition [2]: 6%
AB50 (Rattus norvegicus [1]): >40 mg/kg

COc1ccc2[nH]c3c(c2c1)CCN(Cc1c(OC)cccc1OC)C3
inhibition [7]: 27%
inhibition [2]: 15%

FC(F)(F)c1ccc(CN2CCN(CCCN3CCc4c([nH]c5ccccc45)C3)CC2)cc1
AB50 (Rattus norvegicus [1]): >40 mg/kg

c1ccc2c(CCCCN3CCc4c([nH]c5ccccc45)C3)ccnc2c1
AB50 (Rattus norvegicus [20]): 18 mg/kg

Fc1ccc(C(c2ccc(F)cc2)N2CCN(CCCN3CCc4c([nH]c5ccccc45)C3)CC2)cc1
AB50 (Rattus norvegicus [1]): >40 mg/kg

c1ccc(CCN2CCc3c(n(CCCN4CCCCC4)c4ccccc34)C2)nc1
inhibition [7]: 9%
AB50 (Rattus norvegicus [1]): >40 mg/kg

c1ccc2c3c([nH]c2c1)CN(CCCCc1ccncc1)CC3
AB50 (Rattus norvegicus [21]): 31 mg/kg
AB50 (Rattus norvegicus [22]): 14 mg/kg
Ki (D(2) dopamine receptor [23]): 525 nM

c1ccc2c(c1)c1c(n2CCCN2CCCCC2)CN(CCCc2ccncc2)CC1
inhibition [7]: 22%
AB50 (Rattus norvegicus [1]): >40 mg/kg

c1ccc2nc(CCCCN3CCc4c([nH]c5ccccc45)C3)ccc2c1
AB50 (Rattus norvegicus [24]): 31 mg/kg
Ki (D(2) dopamine receptor [23]): 139 nM

c1ccc2nc(CCN3CCc4c([nH]c5ccccc45)C3)ccc2c1
AB50 (Rattus norvegicus [25]): 10 mg/kg
Ki (D(2) dopamine receptor [23]): 211 nM

Reference: ChEMBL document CHEMBL1123765, “Psychotropic agents: synthesis and antipsychotic activity of substituted beta-carbolines” (J Med Chem, 1987)
